In patent US20090088432A1, “Thiazolinones and Oxazolinones and their Use as Ptp1b Inhibitors” (priority 2005, published 2009):

These compounds were tested against T1, Recombinant human Protein-tyrosine phosphatase1B (PTP1B) (Homo sapiens, UniProt P18031) (assay: PTP1B enzyme inhibition assay (pNpp substrate)). Conditions: inhibition of recombinant human PTP1B, pNpp 5 mM, 30 mins at 25° C; inhibitor concentration not given.
T1 construct: Recombinant human Protein-tyrosine phosphatase1B (PTP1B) (amino acid 1-322 Biomol, USA); purchased Biomol, USA
T1 sequence (P18031 1-322): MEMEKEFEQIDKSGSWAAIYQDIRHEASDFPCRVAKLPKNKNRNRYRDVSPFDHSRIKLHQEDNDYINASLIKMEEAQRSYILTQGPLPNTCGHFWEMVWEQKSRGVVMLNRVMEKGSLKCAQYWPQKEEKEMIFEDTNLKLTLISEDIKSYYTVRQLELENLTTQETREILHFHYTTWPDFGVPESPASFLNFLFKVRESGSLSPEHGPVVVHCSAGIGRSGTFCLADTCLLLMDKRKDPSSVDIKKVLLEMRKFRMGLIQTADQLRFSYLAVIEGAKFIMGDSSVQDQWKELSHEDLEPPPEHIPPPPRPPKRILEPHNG
Assay type: biochemical
Method: Protein tyrosine phosphatase 1B (PTP1B) is an intracellular enzyme which functions by removing the phosphate groups from phosphorylated tyrosine residues of cellular proteins. PTP1B has been implicated as a negative regulator of insulin action and therefore is of therapeutic interest. The ability of the test compounds to inhibit the activity of PTP1B is determined using an enzyme inhibition assay.
The assay is performed using two independent substrates of PTP1B namely, p-nitrophenyl phosphate (pNpp) and the phosphorylated Epidermal growth factor receptor peptide (EGFR).
In the assay performed with pNpp, the action of PTP1B results in the release of p-nitrophenol, which is yellow in colour and can be measured at 410 nm. In the case of the assay using EGFR, action of PTP1B results in the release of free phosphate group. This is trapped using a reagent containing ammonium molybdate and malachite green resulting in a colored complex whose absorbance can be measured at 620 nm.
1× Assay buffer 50 mM HEPES (pH 7.4) • 1 mM EDTA • 1 mM DTT • 0.05% Igepal® CA-630
Dilute recombinant Human PTP1B 1:150 in 1× Assay buffer for 10× stock,
Prepare 10× stock of pNpp (50 mM) in 1× Assay buffer
Prepare 100× stock in 100% DMSO, dilute 1:10 with 1× Assay buffer to get 10× stock in 10% DMSO.
PTP1B inhibition assay was performed using recombinant human PTP1B. PTP1B (0.016 μg/well) was incubated in a buffer containing 50 mM HEPES, 1 mM DTT, 1 mM EDTA and 0.05% Igepal® CA-630 with or without inhibitor (10× stock, final DMSO concentration is 1%) for 30 mins at 25° C. This was followed by addition of p-Nitrophenyl phosphate (pNpp) substrate (5 mM). The final volume of the reaction mixture is 50 μL and experiment was done in 96 well half area plate. The incubation was continued for 30 mins at 25° C. The conversion of pNpp to p-Nitrophenol (pNp) was measured at 410 nm in Spectramaxplus Spectrophotometer (Molecular Devices, USA).

Row | Activity Score | Compound
1 | (++) (++ = 20-50% inhibition) | CC(=C1SC(Nc2ccc(CC(=O)O)cc2)=NC1=O)c1cc2ccccc2o1 [Compound 13, {4-[5-(1-Benzofuran-2-yl-ethylidene)-4-oxo-4,5-dihydro-thiazol-2-ylamino]-phenyl}-acetic acid]
2 | (++) (++ = 20-50% inhibition) | Cc1ccc(S(=O)(=O)NC(=O)Cc2ccc(NC3=NC(=O)C(=Cc4ccc(-c5ccc(O)cc5)cc4)S3)cc2)cc1.[Na].[Na] [Compound 212, N-(2-{4-[5-(4′Hydroxy-biphenyl-4-ylmethylene)-4-oxo-4,5-dihydro-thiazol-2-ylamino]-phenyl}-acetyl)-4-methyl-benzenesulfonamide di-sodium salt]
3 | (+++) (+++ = >50% inhibition) | O=C(O)COc1ccc(-c2ccc(C=C3SC(Nc4ccc(CC(=O)O)cc4)=NC3=O)cc2)cc1 [Compound 201, {4-[5-(4′-Carboxymethoxy-biphenyl-4-ylmethylene)-4-oxo-4,5-dihydro-thiazol-2-ylamino]-phenyl}-acetic acid]
4 | (+++) (+++ = >50% inhibition) | O=C(O)Cc1ccc(NC2=NC(=O)C(=Cc3cccc(-n4cccc4)c3)S2)cc1 [Compound 51, {4-[4-Oxo-5-(3-pyrrol-1-yl-benzylidene)-4,5-dihydro-thiazol-2-ylamino]-phenyl}-acetic acid]
5 | (+++) (+++ = >50% inhibition) | Cc1ccc(S(=O)(=O)NC(=O)Cc2ccc(NC3=NC(=O)C(=Cc4ccc5c(c4)OCCO5)S3)cc2)cc1 [Compound 125, N-(2-{4-[5-(2,3-Dihydro-benzo[1,4]dioxin-6-ylmethylene)-4-oxo-4,5-dihydro-thiazol-2-ylamino]-phenyl}-acetyl)-4-methyl-benzenesulfonamide]
6 | (+++) (+++ = >50% inhibition) | O=C(O)Cc1ccc(NC2=NC(=O)C(=Cc3cccc(-n4cnc5ccccc54)c3)S2)cc1 [Compound 88, {4-[5-(3-Benzoimidazol-1-yl-benzylidene)-4-oxo-4,5-dihydro-thiazol-2-ylamino]-phenyl}-acetic acid]
7 | (+++) (+++ = >50% inhibition) | O=C(O)Cc1ccc(NC2=NC(=O)C(=Cc3ccc(-n4cnnn4)cc3)S2)cc1 [Compound 45, {4-[4-Oxo-5-(4-tetrazol-1-yl-benzylidene)-4,5-dihydro-thiazol-2-ylamino]-phenyl}-acetic acid]
8 | (+) (+ = 10-20% inhibition) | O=C1N=C(Nc2ccc(Cc3nnn[nH]3)cc2)SC1=Cc1cc2ccccc2cc1OCc1ccccc1 [Compound 33, 5-(3-Benzyloxy-naphthalen-2-ylmethylene)-2-[4-(1H-tetrazol-5-ylmethyl)-phenylamino]-thiazol-4-one]
9 | (++) (++ = 20-50% inhibition) | O=C(Cc1ccc(NC2=NC(=O)C(=Cc3ccc(-c4ccccc4)cc3)S2)cc1)NS(=O)(=O)c1ccc(F)cc1.[Na] [Compound 224, N-{2-[4-(5-Biphenyl-4-ylmethylene-4-oxo-4,5-dihydro-thiazol-2-ylamino)-phenyl]-acetyl}-4-fluoro-benzenesulfonamide, sodium salt]
10 | (+) (+ = 10-20% inhibition) | O=C(O)Cc1ccc(NC2=NC(=O)C(=Cc3ccc(C(F)(F)F)cc3)S2)cc1 [Compound 72, {4-[4-Oxo-5-(4-trifluoro methyl-benzylidene)-4,5-dihydro-thiazol-2-ylamino]-phenyl}-acetic acid]
11 | (++) (++ = 20-50% inhibition) | Cc1ccc(S(=O)(=O)NC(=O)Cc2ccc(NC3=NC(=O)C(=Cc4cc5ccccc5cc4OCc4ccccc4)S3)cc2)cc1.[Na] [Compound 104, N-(2-{4-[5-(3-Benzyloxy-naphthalen-2-ylmethylene)-4-oxo-4,5-dihydro-thiazol-2-ylamino]-phenyl}-acetyl)-4-methyl-benzenesulfonamide sodium salt]
12 | (+++) (+++ = >50% inhibition) | O=C(O)Cc1ccc(NC2=NC(=O)C(=Cc3cccn3-c3ccccc3)S2)cc1 [Compound 62, {4-[4-Oxo-5-(1-phenyl-1H-pyrrol-2-ylmethylene)-4,5-dihydro-thiazol-2-ylamino]-phenyl}-acetic acid]
13 | (+++) (+++ = >50% inhibition) | COc1cc(C=C2SC(Nc3ccc(CC(=O)O)cc3)=NC2=O)cc(OC)c1OC [Compound 59, {4-[4-Oxo-5-(3,4,5-trimethoxy-benzylidene)-4,5-dihydro-thiazol-2-ylamino]-phenyl}-acetic acid]
14 | (+++) (+++ = >50% inhibition) | O=C(O)Cc1ccc(NC2=NC(=O)C(=Cc3ccc4ccccc4c3)S2)cc1 [Compound 1, [4-(5-Naphthalen-2-ylmethylene-4-oxo-4,5-dihydro-thiazol-2-ylamino)-phenyl]-acetic acid]
15 | (++) (++ = 20-50% inhibition) | O=C(O)Cc1cccc(NC2=NC(=O)C(=Cc3cc4ccccc4cc3OCc3ccccc3)S2)c1 [Compound 14, {3-[5-(3-Benzyloxy-naphthalen-2-ylmethylene)-4-oxo-4,5-dihydro-thiazol-2-ylamino]-phenyl}-acetic acid]
16 | (+++) (+++ = >50% inhibition) | O=C(O)Cc1ccc(NC2=NC(=O)C(=Cc3ccc(-c4ccc(O)cc4)cc3)S2)cc1 [Compound 199, {4-[5-(4′-Hydroxy-biphenyl-4-ylmethylene)-4-oxo-4,5-dihydro-thiazol-2-ylamino]-phenyl}-acetic acid]
17 | (+) (+ = 10-20% inhibition) | O=C(O)Cc1ccc(NC2=NC(=O)C(=Cc3ccc(C(=O)N4CCOCC4)cc3)S2)cc1 [Compound 36, (4-{5-[4-(Morpholine-4-carbonyl)-benzylidene]-4-oxo-4,5-dihydro-thiazol-2-ylamino}-phenyl)-acetic acid]
18 | (+++) (+++ = >50% inhibition) | NS(=O)(=O)c1ccc(-c2ccc(C=C3SC(Nc4ccc(CC(=O)O)cc4)=NC3=O)cc2)cc1 [Compound 210, {4-[4-Oxo-5-(4′-sulfamoyl-biphenyl-4-ylmethylene)-4,5-dihydro-thiazol-2-ylamino]-phenyl}-acetic acid]
19 | (+) (+ = 10-20% inhibition) | O=C(O)Cc1cccc(NC2=NC(=O)C(=Cc3ccc4ccccc4c3)S2)c1 [Compound 16, [3-(5-Naphthalen-2-ylmethylene-4-oxo-4,5-dihydro-thiazol-2-ylamino)-phenyl]-acetic acid]
20 | (+++) (+++ = >50% inhibition) | 4-[5-(6-Ethoxy-naphthalen-2-ylmethylene)-4-oxo-4,5-dihydro-thiazol-2-ylamino]-phenyl}-sodium acetate [Compound 143]
21 | (+++) (+++ = >50% inhibition) | O=C(O)Cc1ccc(NC2=NC(=O)C(=Cc3ccc(-c4ccccc4)cc3)S2)cc1 [Compound 9, [4-(5-Biphenyl-4-ylmethylene-4-oxo-4,5-dihydro-thiazol-2-ylamino)-phenyl]-acetic acid]
22 | (+++) (+++ = >50% inhibition) | COc1ccc(S(=O)(=O)NC(=O)Cc2ccc(NC3=NC(=O)C(=Cc4ccc(-c5ccccc5)cc4)S3)cc2)cc1.[Na] [Compound 226, N-{2-[4-(5-Biphenyl-4-ylmethylene-4-oxo-4,5-dihydro-thiazol-2-ylamino)-phenyl]-acetyl}-4-methoxy-benzenesulfonamide, sodium salt]
23 | (+) (+ = 10-20% inhibition) | O=C(Cc1ccc(NC2=NC(=O)C(=Cc3ccc(-n4cccn4)cc3)S2)cc1)NS(=O)(=O)c1ccccc1 [Compound 103, N-(2-{4-[4-Oxo-5-(4-pyrazol-1-yl-benzylidene)-4,5-dihydro-thiazol-2-ylamino]-phenyl}-acetyl)-benzenesulfonamide]
24 | (++) (++ = 20-50% inhibition) | O=C(O)Cc1ccc(NC2=NC(=O)C(=Cc3ccc(-c4ccccc4)cc3)O2)cc1 [Compound 100, [4-(5-Biphenyl-4-ylmethylene-4-oxo-4,5-dihydro-oxazol-2-ylamino)-phenyl]-acetic acid]

Row | Compound | Activity Score
25 | CC(C)(C)OC(=O)Cn1cc(C=C2SC(Nc3ccc(CC(=O)O)cc3)=NC2=O)c2ccccc21 [Compound 11, {4-[5-(1-tert-Butoxycarbonylmethyl-1H-indol-3-ylmethylene)-4-oxo-4,5-dihydro-thiazol-2-ylamino]-phenyl}-acetic acid] | (++) (++ = 20-50% inhibition)
